Test results reported in ChEMBL document CHEMBL1138928, “Toward orthopoxvirus countermeasures: a novel heteromorphic nucleoside of unusual structure” (J Med Chem, 2006).

Test system: Vaccinia virus
Test: Antiviral activity against vaccinia virus in HFF cells by cytopathogenic effect assay
Format: functional, organism-based
Settings: Orthopoxvirus vaccinia

Row | SMILES | EC50 [µM]
1 | N#CC1=C(N)OC2=C(C(=O)CCC2)C1c1cn([C@H]2C[C@@H](O)[C@@H](CO)O2)c(=O)[nH]c1=O (some centres not stated) | 0.6
2 | Nc1ccn(C[C@@H](CO)OCP(=O)(O)O)c(=O)n1 [CIDOFOVIR] | 3.2
